Assay results as given in patent publication US12421193B2, “GPR52 modulators and methods of use” (Neurocrine Biosciences, Inc., priority 2020, dated 2025).
pEC50: −log10 of the molar value. Structures can show the parent of a compound that is named as a salt.

Biological target: T1, recombinant human GPR52 (Homo sapiens, UniProt Q9Y2T5)
T1 construct: expressed in transfected cells
Test: TR-FRET cAMP assay (LANCE Ultra cAMP Kit), GPR52 activity
Format: cell-based
Settings: Flp-In-CHO cells stably expressing recombinant human GPR52; cAMP production, normalized to the positive control
Protocol: TR-FRET cAMP assays were performed using commercially available assay kits (LANCE™ Ultra cAMP Kit). Controls and compounds were solubilized in DMSO using ½ log dilution to generate duplicate 10-point dose response curves in 384-well polypropylene compound plates. Sixty nanoliters of the diluted compounds were transferred into 384-well NBS assay plates and further diluted to 1× with the addition of 2000 cells per well. Flp-In™—CHO cells that stably express recombinant human GPR52.
Cells were harvested with cell stripper and resuspended in Stimulation Buffer (5 mM HEPES, 0.1% bovine serum albumin (BSA), 0.5 mM IBMX, pH 7.4). After thirty minutes incubation at room temperature, detection reagents were added to each well. Plates were then incubated for 30 minutes at room temperature. The LANCE™ Ultra cAMP assay uses time-resolved fluorescence resonance energy transfer (TR-FRET) to detect cAMVP production; this signal was quantified using a Pherastar multi-mode plate reader.
Dose-response curves were generated from the fluorescence counts normalized to the positive control. E EC50 values were obtained using a nonlinear regression curve-fitting program.

T1 sequence (Q9Y2T5 whole entry): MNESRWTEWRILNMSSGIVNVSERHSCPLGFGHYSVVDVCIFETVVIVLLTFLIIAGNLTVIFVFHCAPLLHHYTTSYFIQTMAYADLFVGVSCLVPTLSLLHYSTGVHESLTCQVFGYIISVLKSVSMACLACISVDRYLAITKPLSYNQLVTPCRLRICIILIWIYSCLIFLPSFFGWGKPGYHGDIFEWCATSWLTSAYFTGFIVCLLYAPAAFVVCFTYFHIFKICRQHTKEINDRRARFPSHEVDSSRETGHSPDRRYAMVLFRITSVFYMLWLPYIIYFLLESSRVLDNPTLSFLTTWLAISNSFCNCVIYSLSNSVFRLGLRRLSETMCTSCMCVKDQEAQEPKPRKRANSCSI

SMILES: Cc1cc(-c2cc(COc3cc(Cl)cc(Cl)c3)ccn2)ccc1C(N)=O [Example 20, 4-[4-(3,5-dichlorophenoxymethyl)pyridin-2-yl]-2-methylbenzamide]
- pEC50: > 7.60

SMILES: CC(=O)c1ccc(OCc2cc(-c3ccc(C(N)=O)c(C)c3)ccn2)cc1 [Example 86, 4-[2-(4-acetylphenoxymethyl)pyridin-4-yl]-2-methylbenzamide hydrochloride]
- pEC50: > 7.60

SMILES: COc1ccc(OCc2ccnc(-c3ccc(C(N)=O)c(C)c3)c2)cc1F [Example 62, 4-[4-(3-fluoro-4-methoxyphenoxymethyl)pyridin-2-yl]-2-methylbenzamide]
- pEC50: > 7.60

SMILES: CCCc1ccccc1OCc1ccnc(-c2ccc(C(N)=O)c(C)c2)c1 [Example 23, 4-[4-(2-propylphenoxymethyl)pyridin-2-yl]-2-methyl benzamide]
- pEC50: > 7.60

SMILES: Cc1cc(-c2cncc(COc3ccc4cnn(C)c4c3)c2)ccc1C(N)=O [Example 95, 4-(5-{[(1-methyl-1H-indazol-6-yl)oxy]methyl}pyridin-3-yl)-2-methylbenzamide]
- pEC50: < 6.00

SMILES: Cc1cc(-c2cc(COc3cccc(S(C)(=O)=O)c3)ccn2)ccc1C(N)=O [Example 5, 4-[4-(3-methanesulfonylphenoxymethyl)pyridin-2-yl]-2-methylbenzamide]
- pEC50: 6.00 to 7.00

SMILES: Cc1ccc(OCc2cncc(-c3ccc(C(N)=O)c(C)c3)c2)cc1F [Example 89, 4-[5-(3-fluoro-4-methylphenoxymethyl)pyridin-3-yl]-2-methylbenzamide]
- pEC50: 7.00 to 7.60

SMILES: Cc1cc(-c2cncc(COc3ccc(C(F)(F)F)cc3)c2)ccc1C(N)=O [Example 90, 4-{5-[4-(trifluoromethyl)phenoxymethyl]pyridin-3-yl}-2-methylbenzamide]
- pEC50: 7.00 to 7.60

SMILES: Cc1ccccc1OCc1ccnc(-c2ccc(C(N)=O)c(C)c2)c1 [Example 46, 4-[4-(2-methylphenoxymethyl)pyridin-2-yl]-2-methylbenzamide]
- pEC50: 6.00 to 7.00

SMILES: Cc1cc(-c2cc(COc3cc(C(F)(F)F)nn3C)ccn2)ccc1C(N)=O [Example 66, 4-[4-({[1-methyl-3-(trifluoromethyl)-1H-pyrazol-5-yl]oxy}methyl)pyridin-2-yl]2-methylbenzamide]
- pEC50: 7.00 to 7.60

SMILES: Cc1ccc(OCc2ccnc(-c3ccc(C(N)=O)c(C)c3)c2)cc1 [Example 36, 4-[4-(4-methylphenoxymethyl)pyridin-2-yl]-2-methylbenzamide]
- pEC50: 6.00 to 7.00

SMILES: Cc1cc(-c2cc(COc3ccc4c(c3)CCO4)ccn2)ccc1C(N)=O [Example 64, 4-{4-[(2,3-dihydro-1-benzofuran-5-yloxy)methyl]pyridin-2-yl}-2-methylbenzamide]
- pEC50: > 7.60

SMILES: Cc1cc(-c2cc(COc3ccc(C4CC4)c(F)c3)ccn2)ccc1C(N)=O [Example 71, 4-[4-(4-cyclopropyl-3-fluorophenoxymethyl)pyridin-2-yl]-2-methylbenzamide]
- pEC50: > 7.60

SMILES: COc1cc(OCc2ccnc(-c3ccc(C(N)=O)c(C)c3)c2)ccc1F [Example 61, 4-[4-(4-fluoro-3-methoxyphenoxymethyl)pyridin-2-yl]-2-methylbenzamide]
- pEC50: > 7.60

SMILES: Cc1cc(-c2cc(COc3ccc4nn(C)cc4c3)ccn2)ccc1C(N)=O [Example 72, 4-(4-{[(2-methyl-2H-indazol-5-yl)oxy]methyl}pyridin-2-yl)-2-methyl benzamide]
- pEC50: 6.00 to 7.00

SMILES: Cc1cc(-c2cncc(COc3ccc(F)cc3)c2)ccc1C(N)=O [Example 97, 4-[5-(4-fluorophenoxymethyl)pyridin-3-yl]-2-methylbenzamide]
- pEC50: < 6.00

SMILES: Cc1cc(-c2cc(COc3cc(F)c(C#N)c(F)c3)ccn2)ccc1C(N)=O [Example 10, 4-[4-(4-cyano-3,5-difluorophenoxymethyl)pyridin-2-yl]-2-methylbenzamide]
- pEC50: 7.00 to 7.60

SMILES: Cc1cc(-c2cc(COc3ccc(Cl)cc3)ccn2)ccc1C(N)=O [Example 40, 4-[4-(4-chlorophenoxymethyl)pyridin-2-yl]-2-methylbenzamide]
- pEC50: < 6.00
